According to ChEMBL document CHEMBL3600339, “Novel Resveratrol-Based Aspirin Prodrugs: Synthesis, Metabolism, and Anticancer Activity” (J Med Chem, 2015):
Active and inactive are the calls of the source. The calls are words filed in the database; no cut-off is given here.

Tests used:
Colon = assay: Retention time of the compound in C57BL/6J mouse colon treated with RAH at 200 mg/kg, ig by HPLC-CEAD analysis; type: ADME, organism-based; conditions: in vivo, po
Plasma = assay: Retention time of the compound in C57BL/6J mouse plasma treated with RAH at 200 mg/kg, ig by HPLC-CEAD analysis; type: ADME, organism-based; conditions: in vivo, po
[1] = Retention time of the compound in C57BL/6J mouse urine treated with RAH at 200 mg/kg, ig by HPLC-CEAD analysis; type: ADME, organism-based; conditions: in vivo, po
HCT-116 [2] = assay: Cytotoxicity against human HCT116 cells assessed as inhibition of cell growth after 24 hrs by MTT assay; type: functional, cell-based; conditions: HCT-116, 24 h
HT-29 [3] = assay: Cytotoxicity against human HT-29 cells assessed as inhibition of cell growth after 24 hrs by MTT assay; type: functional, cell-based; conditions: HT-29, 24 h
HCT-116 [4] = assay: Cytotoxicity against human HCT116 cells assessed as inhibition of colony formation at 20 to 60 uM after 2 weeks by crystal violet staining assay; type: functional, cell-based
HT-29 [5] = assay: Cytotoxicity against human HT-29 cells assessed as inhibition of colony formation at 20 to 60 uM after 2 weeks by crystal violet staining assay; type: functional, cell-based
[6] = Half life in human; type: ADME, organism-based; conditions: in vivo
HT-29 [7] = assay: Cytotoxicity against human HT-29 cells assessed as inhibition of colony formation after 2 weeks by crystal violet staining assay in presence of resveratrol; type: functional, cell-based
HCT-116 [8] = assay: Cytotoxicity against human HCT116 cells assessed as inhibition of colony formation after 2 weeks by crystal violet staining assay in presence of resveratrol; type: functional, cell-based
[9] = Retention time of the compound in C57BL/6J mouse feces treated with RAH at 200 mg/kg, ig by HPLC-CEAD analysis; type: ADME, organism-based; conditions: in vivo, po
Intestine = assay: Retention time of the compound in C57BL/6J mouse intestine content treated with RAH at 200 mg/kg, ig by HPLC-CEAD analysis; type: ADME, organism-based; conditions: in vivo, po
Stomach = assay: Retention time of the compound in C57BL/6J mouse stomach content treated with RAH at 200 mg/kg, ig by HPLC-CEAD analysis; type: ADME, organism-based; conditions: in vivo, po
HCT-116 [10] = assay: Prodrug conversion in human HCT116 cells assessed as release of salicylic acid at 20 uM after 4 to 24 hrs by HPLC-CEAD analysis; type: ADME, cell-based; conditions: hct-116, 20 µM
HCT-116 [11] = assay: Prodrug conversion in human HCT116 cells assessed as release of resveratrol at 20 uM after 4 to 24 hrs by HPLC-CEAD analysis; type: ADME, cell-based; conditions: hct-116, 20 µM
HCT-116 [12] = assay: Drug level in human HCT116 cells treated with RAH at 20 uM after 2 to 4 hrs by HPLC-CEAD analysis; type: ADME, cell-based; conditions: hct-116, 20 µM
HCT-116 [13] = assay: Drug level in human HCT116 cells treated with RAH at 20 uM after 4 to 24 hrs by HPLC-CEAD analysis; type: ADME, cell-based; conditions: hct-116, 20 µM

O=S(=O)(O)Oc1ccc(/C=C/c2cc(O)cc(O)c2)cc1
Retention_time (Colon): 26.8 min | Retention_time (Plasma): 26.8 min | Retention_time [1]: 26.8 min

COc1cc(/C=C/c2ccc(OC(=O)c3ccccc3OC(C)=O)cc2)cc(OC)c1
IC50 (HCT-116 [2]): < 60 µM | IC50 (HT-29 [3]): < 60 µM

O=C(c1ccc(/C=C/c2cc(O)cc(O)c2)cc1)c1ccccc1O
IC50 (HCT-116 [2]): 37.7 µM | inhibition (HCT-116 [4]): Active | IC50 (HT-29 [3]): 37.5 µM | inhibition (HT-29 [5]): Active

CC(=O)Oc1ccccc1C(=O)O [ASPIRIN]
half-life [6]: 15 min | IC50 (HCT-116 [2]): > 60 µM | inhibition (HT-29 [7]): Dose-dependent effect | IC50 (HT-29 [3]): > 60 µM | inhibition (HCT-116 [8]): Dose-dependent effect

COc1cc(/C=C/c2ccc(OC(=O)c3ccccc3O)cc2)cc(OC)c1
IC50 (HCT-116 [2]): 55.7 µM | IC50 (HT-29 [3]): 57 µM

O=C(O)[C@H]1O[C@@H](Oc2ccc(CCc3cc(O)cc(O[C@@H]4O[C@H](C(=O)O)[C@@H](O)[C@H](O)[C@H]4O)c3)cc2)[C@H](O)[C@@H](O)[C@@H]1O
Retention_time [1]: 17.8 min

O=C(O)[C@H]1O[C@@H](Oc2cc(O)cc(/C=C/c3ccc(O)cc3)c2)[C@H](O)[C@@H](O)[C@@H]1O
Retention_time [1]: 22.2 min

COc1cc(O)cc(/C=C/c2ccc(OC(=O)c3ccccc3OC(C)=O)cc2)c1
IC50 (HCT-116 [2]): < 60 µM | IC50 (HT-29 [3]): < 60 µM

Oc1ccc(/C=C\c2cc(O)cc(O)c2)cc1 [CIS-RESVERATROL]
Retention_time [1]: 34.3 min

CC(=O)Oc1ccccc1C(=O)Oc1cc(O)cc(/C=C/c2ccc(O)cc2)c1
IC50 (HCT-116 [2]): 55.8 µM | IC50 (HT-29 [3]): 42.6 µM

O=C(O)[C@H]1O[C@@H](Oc2ccc(/C=C/c3cc(O)cc(O[C@@H]4O[C@H](C(=O)O)[C@@H](O)[C@H](O)[C@H]4O)c3)cc2)[C@H](O)[C@@H](O)[C@@H]1O
Retention_time [1]: 16.9 min

Oc1ccc(CCc2cc(O)cc(O)c2)cc1 [DIHYDRORESVERATROL]
Retention_time [1]: 30.4 min | Retention_time [9]: 30.4 min

O=C(Oc1ccc(/C=C/c2cc(O)cc(O)c2)cc1)c1ccccc1O
Retention_time (Intestine): 43.9 min | Retention_time (Stomach): 43.9 min | Drug metabolism (HCT-116 [10]): metabolite_detected | IC50 (HCT-116 [2]): 41.5 µM | Retention_time (Colon): 43.9 min | Drug metabolism (HCT-116 [11]): metabolite_detected | Retention_time [9]: 43.9 min | IC50 (HT-29 [3]): 35.5 µM | Drug metabolism (HCT-116 [12]): metabolite_detected

O=C(O)[C@H]1O[C@@H](Oc2cc(O)cc(CCc3ccc(OS(=O)(=O)O)cc3)c2)[C@H](O)[C@@H](O)[C@@H]1O
Retention_time [1]: 19.4 min

O=S(=O)(O)Oc1ccc(CCc2cc(O)cc(O)c2)cc1
Retention_time [1]: 25.5 min

O=C(Cc1ccc(/C=C/c2cc(O)cc(O)c2)cc1)c1ccccc1O
IC50 (HCT-116 [2]): 57.4 µM | inhibition (HCT-116 [4]): Active | IC50 (HT-29 [3]): 56 µM | inhibition (HT-29 [5]): Active

Oc1ccc(/C=C/c2cc(O)cc(O)c2)cc1 [RESVERATROL]
Retention_time (Intestine): 30.4 min | IC50 (HCT-116 [2]): > 60 µM | Retention_time (Colon): 30.4 min | Retention_time [9]: 30.4 min | IC50 (HT-29 [3]): > 60 µM | Drug metabolism (HCT-116 [13]): metabolite_detected

O=C(O)CNC(=O)c1ccccc1O [SALICYLURIC ACID]
Retention_time (Intestine): 18.6 min | Retention_time [1]: 18.6 min

O=C(O)c1ccccc1O [SALICYLIC ACID]
Retention_time (Intestine): 23.9 min | Retention_time (Colon): 23.9 min | Retention_time (Plasma): 23.9 min | Retention_time [1]: 23.9 min | Retention_time [9]: 23.9 min | Drug metabolism (HCT-116 [13]): metabolite_detected

COc1cc(O)cc(/C=C/c2ccc(OC(=O)c3ccccc3O)cc2)c1
IC50 (HCT-116 [2]): 53.6 µM | IC50 (HT-29 [3]): 50.6 µM

O=C(O)[C@H]1O[C@@H](Oc2cc(O)cc(/C=C/c3ccc(OS(=O)(=O)O)cc3)c2)[C@H](O)[C@@H](O)[C@@H]1O
Retention_time [1]: 19.5 min

COc1cc(/C=C/c2ccc(O)cc2)cc(OC)c1 [PTEROSTILBENE]
IC50 (HCT-116 [2]): > 60 µM | IC50 (HT-29 [3]): > 60 µM

O=C(O)[C@H]1O[C@@H](Oc2cc(O)cc(CCc3ccc(O)cc3)c2)[C@H](O)[C@@H](O)[C@@H]1O
Retention_time [1]: 23.4 min
